Reference: article PMC9667936, “Functional mapping of the 14-3-3 hub protein as a guide to design 14-3-3 molecular glues” (Chemical Science, 2022)
Where a SMILES comes first, the peptide text is derived from it. [ ]: non-standard residue; d: D form. ξ: configuration not given here. Phe(4-NO2) = N[C@@H](Cc1ccc([N+](=O)[O-])cc1)C(=O)O; ξAla(4-thiazolyl) = NC(Cc1cscn1)C(=O)O; pS = N[C@@H](COP(=O)(O)O)C(=O)O; β3hS = N[C@@H](CO)CC(=O)O; Nva = CCC[C@H](N)C(=O)O; ξβ3hS = NC(CO)CC(=O)O; βAla = NCCC(=O)O

Biological target: T1, 14-3-3γ (Homo sapiens, UniProt P61981)
T1 construct: made in house; host or cells: E. coli NiCo21 (DE3)
T1 sequence (P61981 1-247): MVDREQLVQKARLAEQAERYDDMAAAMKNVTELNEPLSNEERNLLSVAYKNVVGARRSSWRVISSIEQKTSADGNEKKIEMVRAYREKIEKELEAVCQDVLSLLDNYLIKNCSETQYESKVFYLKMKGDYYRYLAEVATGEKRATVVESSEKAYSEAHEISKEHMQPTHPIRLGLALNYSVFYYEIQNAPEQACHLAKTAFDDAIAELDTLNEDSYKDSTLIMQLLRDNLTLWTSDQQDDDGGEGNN
Assay: Fluorescence anisotropy (FA) binary binding study: 14-3-3 titrated to fluorescein-labelled peptide
Details: for ΔΔG of point mutation (FA): relative to 1, mean ± SD, SD; for Affinity Kd / Kd: Table S4, point-mutated peptides; for ΔΔG of point mutation (FA) / Affinity Kd / Kd: FA; for Affinity Kd: 10 nM FITC-labelled peptide; for Kd: 14-3-3 titrated to 10 nM FITC-labelled peptide, HEPES pH 7.4, room temperature, 4PL fit, read-out: Affinity Kd; for ΔG (FA): Table S1
Summary of the method: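 N-terminal His6-tagged full-length human 14-3-3γ expressed in E. coli, Ni-NTA purified and dialyzed into 25 mM HEPES pH 8.0, 100 mM NaCl, 10 mM MgCl2, 500 μM TCEP. Tag-cleaved 14-3-3σ truncated after T231 used for crystallography. Labelled peptides made by Fmoc solid-phase synthesis.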

[1] = Table S4, FA Kd / Kd of 1, replicate 1
[2] = Table S4, FA Kd / Kd of 1, replicate 2
[3] = Table S4, FA Kd / Kd of 1, replicate 3
[4] = Table S4, FA Kd of peptide divided by Kd of 1, mean of n = 3
[5] = Table S4, calculated from FA Kd, mean of n = 3
[6] = Table S4, from FA Kd, replicate 1
[7] = Table S4, from FA Kd, replicate 2
[8] = Table S4, from FA Kd, replicate 3
[9] = Table S4, ΔG minus ΔG of 1, FA, replicate 1
[10] = Table S4, ΔG minus ΔG of 1, FA, replicate 2
[11] = Table S4, ΔG minus ΔG of 1, FA, replicate 3
[12] = Table S4, ΔG of peptide minus ΔG of 1, FA, mean of n = 3

Compound | ΔΔG of point mutation (FA) [kcal/mol] | Affinity Kd (replicate 1) [nM] | Affinity Kd (replicate 2) [nM] | Affinity Kd (replicate 3) [nM] | Kd (mean of n = 3) [nM] | Fold change to 1 [1] | Fold change to 1 [2] | Fold change to 1 [3] | Fold change to 1 [4] | ΔG [5] [kcal/mol] | ΔG [6] [kcal/mol] | ΔG [7] [kcal/mol] | ΔG [8] [kcal/mol] | ΔΔG to 1 [9] [kcal/mol] | ΔΔG to 1 [10] [kcal/mol] | ΔΔG to 1 [11] [kcal/mol] | ΔΔG to 1 [12] [kcal/mol] | other results
CCC[C@H](NC(=O)[C@H](N)CCCCN)C(=O)N[C@@H](Cc1ccc([N+](=O)[O-])cc1)C(=O)NC(Cc1cscn1)C(=O)N[C@@H](COP(=O)(O)O)C(=O)N[C@@H](Cc1ccccc1)C(=O)N[C@@H](CO)CC(=O)NCCC(=O)N[C@@H](Cc1ccc([N+](=O)[O-])cc1)C(=O)N[C@@H](CCCCN)C(N)=O (stereo partly drawn) [4b] (H-[dK][Nva][Phe(4-NO2)][ξAla(4-thiazolyl)][pS]F[β3hS][βAla][Phe(4-NO2)]K-NH2; N-terminus and C-terminus assumed) | -0.1 ± 0.3 | 46 | 33 | 87 | 55 | 0.9 | 0.5 | 1.2 | 0.8 | -9.9 | -10.0 | -10.2 | -9.6 | -0.1 | -0.5 | 0.1 | -0.1 | –
CCC[C@H](NC(=O)[C@H](N)CCCCN)C(=O)N[C@@H](Cc1ccc([N+](=O)[O-])cc1)C(=O)NC(Cc1cscn1)C(=O)N[C@@H](COP(=O)(O)O)C(=O)N[C@@H](C)C(=O)N[C@@H](CO)CC(=O)NCCC(=O)N[C@@H](Cc1ccc([N+](=O)[O-])cc1)C(=O)N[C@@H](CCCCN)C(N)=O (stereo partly drawn) [4c] (H-[dK][Nva][Phe(4-NO2)][ξAla(4-thiazolyl)][pS]A[β3hS][βAla][Phe(4-NO2)]K-NH2; N-terminus and C-terminus assumed) | 1.8 ± 0.1 | 1200 | 1200 | 1600 | 1300 | 24.0 | 17.0 | 21.3 | 20.8 | -8.0 | -8.1 | -8.1 | -7.9 | 1.9 | 1.7 | 1.8 | 1.8 | –
CCC[C@H](NC(=O)[C@H](N)CCCCN)C(=O)N[C@@H](Cc1ccc([N+](=O)[O-])cc1)C(=O)NC(Cc1cscn1)C(=O)N[C@@H](COP(=O)(O)O)C(=O)N[C@@H](Cc1ccc([N+](=O)[O-])cc1)C(=O)N[C@@H](CO)CC(=O)NCCC(=O)N[C@@H](Cc1ccc(O)cc1)C(=O)N[C@@H](CCCCN)C(N)=O (stereo partly drawn) [5a] (H-[dK][Nva][Phe(4-NO2)][ξAla(4-thiazolyl)][pS][Phe(4-NO2)][β3hS][βAla]YK-NH2; N-terminus and C-terminus assumed) | – | 1700 | 1200 | 1700 | 1500 | 33.2 | 17.1 | 22.5 | 24.2 | -7.9 | -7.9 | -8.1 | -7.9 | 2.1 | 1.7 | 1.8 | 1.9 | 14-3-3 binding affinity, result in words (replacement of nitro by hydroxy group at +4, compared with 5b, FA and ITC): did not restore the binding affinity
CCC[C@H](NC(=O)[C@H](N)CCCCN)C(=O)N[C@@H](Cc1ccc([N+](=O)[O-])cc1)C(=O)NC(Cc1cscn1)C(=O)N[C@@H](COP(=O)(O)O)C(=O)N[C@@H](Cc1ccc([N+](=O)[O-])cc1)C(=O)N[C@@H](CO)CC(=O)NCCC(=O)N[C@@H](Cc1ccccc1)C(=O)N[C@@H](CCCCN)C(N)=O (stereo partly drawn) [5b] (H-[dK][Nva][Phe(4-NO2)][ξAla(4-thiazolyl)][pS][Phe(4-NO2)][β3hS][βAla]FK-NH2; N-terminus and C-terminus assumed) | – | 1300 | 1200 | 1800 | 1400 | 24.3 | 16.9 | 24.9 | 22.0 | -8.0 | -8.0 | -8.1 | -7.8 | 1.9 | 1.7 | 1.9 | 1.8 | –
CCC[C@H](NC(=O)[C@H](N)CCCCN)C(=O)N[C@@H](Cc1ccc([N+](=O)[O-])cc1)C(=O)NC(Cc1cscn1)C(=O)N[C@@H](COP(=O)(O)O)C(=O)N[C@@H](Cc1ccc([N+](=O)[O-])cc1)C(=O)N[C@@H](CO)CC(=O)NCCC(=O)N[C@@H](C)C(=O)N[C@@H](CCCCN)C(N)=O (stereo partly drawn) [5c] (H-[dK][Nva][Phe(4-NO2)][ξAla(4-thiazolyl)][pS][Phe(4-NO2)][β3hS][βAla]AK-NH2; N-terminus and C-terminus assumed) | – | 3200 | 2200 | 2900 | 2800 | 62.1 | 31.0 | 39.8 | 44.3 | -7.6 | -7.5 | -7.7 | -7.5 | 2.4 | 2.0 | 2.2 | 2.2 | –
CCC[C@H](NC(=O)[C@H](N)CCCCN)C(=O)N[C@@H](Cc1ccc([N+](=O)[O-])cc1)C(=O)NC(Cc1cscn1)C(=O)N[C@@H](COP(=O)(O)O)C(=O)N[C@@H](Cc1ccc([N+](=O)[O-])cc1)C(=O)NC(CO)CC(=O)NCCC(=O)N[C@@H](Cc1ccc([N+](=O)[O-])cc1)C(=O)N[C@@H](CCCCN)C(N)=O (stereo partly drawn) [compound 1] (H-[dK][Nva][Phe(4-NO2)][ξAla(4-thiazolyl)][pS][Phe(4-NO2)][ξβ3hS][βAla][Phe(4-NO2)]K-NH2) | – | 52 | 71 | 74 | – | – | – | – | – | -9.8 | -9.9 | -9.7 | -9.7 | – | – | – | – | ΔG (FA) (calculated from FA KD, mean of n = 3): -10.5 kcal/mol; ΔG (FA) (from FA KD, replicate 1): -10.6 kcal/mol; ΔG (FA) (from FA KD, replicate 2): -10.6 kcal/mol; ΔG (FA) (from FA KD, replicate 3): -10.4 kcal/mol; ΔG (Table S2, calculated from FA KD, mean of n = 3): -10,53 kcal/mol; ΔG (Table S2, from FA KD, replicate 1): -10,61 kcal/mol; ΔG (Table S2, from FA KD, replicate 2): -10,56 kcal/mol; ΔG (Table S2, from FA KD, replicate 3): -10,41 kcal/mol; free binding energy ΔG (FA) (from FA KD): -10.5 kcal/mol
